Values of other authors in US5484785A, “Salts of a quinolone-carboxylic acid” (Cheil Foods & Chemicals, Inc., priority 1992, dated 1996).

In the case of O=C(O)c1cn(C2CC2)c2cc(N3CCNCC3)c(F)cc2c1=O [Ciprofloxacin lactate], the “Precipitation in injection/solution (in words)” value (lactate: contained in the injection in an excessive amount) is given as “tends to occur precipitation in an injection”.
For O=C(O)c1cn(C2CC2)c2cc(N3CCNCC3)c(F)cc2c1=O [Ciprofloxacin, 1-cyclopropyl-6-fluoro-1,4-dihydro-4-oxo-7-(1-piperazinyl)-quinoline-3-carboxylic acid], the “Antibacterial activities (in words)” value (bacteria) is listed as “potent antibacterial activities”.
In the case of methanesulfonate, the “pH of known Ciprofloxacin salts (in words)” value (solution) is listed as “very low value of pH”.
